These results are taken from patent US8367645B2, “Compositions and methods for treating hyperproliferative diseases” (priority 2008, dated 2013).

Test [1] has as its system transplanted human hepatoma (Hep G2 cells). The test is described as follows: Volume of transplanted human hepatoma (Hep G2) in hairless mice. The class given is in vivo. How it is done:
The procedures for performing this test were as follows. Hep G2 cells were prepared at 25*10^6 cells/ml and 0.2 ml of the cell suspension (5*10^6 cells) was injected in an exposed mouse mammary fat pad. When tumors achieved the required size (0.5 cm^3), animals would be treated with 50 μl of B10, dehydrated alcohol or 10% glucose solution once daily for 6 days. During 12 days after the last injection, tumor volume will be assessed by measuring tumor dimensions (long (L) and short (S)) and estimated it as V=0.52*L*S^2. 12 days after the last injection, mice would be sacrificed and tumors would be dissected, weighed and stored in a formaline solution for further evaluation.).

The test system of test [2] is B16 (mice melanoma cells). The following applies: metformin 5 mM alone or in combination.
Protocol: Each of the cell samples were then tested in a flow cytometer. The testing methodology and equipment used are set forth as follows. Cells were harvested and washed twice with phosphate buffered saline, (PBS) and fixed in 70% cold ethanol at 4° C. overnight. Before analysis, cells were washed twice with PBS, containing 1% bovine serum albumin (BSA), then resuspended with 400 μl PBS and treated with 100 μg/ml RNase A (Roche Diagnostics) and 50 μg/ml propidium iodide (PI) (Sigma). After incubation for 30 min at 37° C., the cells were subjected to DNA content analysis. propidium iodide, (PI) fluorescence was analyzed with a FACS calibur flowcytometer, (Becton Dickinson). Data from at least 10,000 cells were analyzed with software.
In Example 5, Metformin 5 mM; Metformin 5 mM+aspirin 2 mM; and Metformin 5 mM+aspirin 2 mM+serotonin creatinine sulfate complex 0.001 mM were tested to determine the effect on cell cycle on B16 (mice melanoma cells) during the G1, S and G2 cell phases. The procedure for testing using the flow cytometer was carried out as set forth in Example 1 above.

The structures appear in SMILES notation. Marks after values point to notes of the source that are not given here.

Regarding `CCO` [Dehydration ethanol], in test [1], the “rate of elimination of hepatoma volume” value is 52.7%. Moreover, the “Volume After Treatment” value in test [1] (Hep G2 tumor, 50 μl once daily for 6 days, 10% G.S. 444 ± 199) is given as 89 ± 120**. In addition, the “Volume Before Treatment” value in test [1] (Hep G2 tumor, before treatment) is on record as 188 ± 119. Further, the “Volume Changes” value in test [1] (Hep G2 tumor, ↓ = decrease, 10% G.S. ↑158%) is reported as “↓52.7%”.
As to `CN(C)C(=N)N=C(N)N` [Metformin], the S in test [2] (control 12.8) amounted to 4.6. For the same molecule, in test [2] (control 23.1), the G2 is listed as 23.6. The G1 in test [2] (control 64) is given as 71.8.
